{"source": "PubChem BioAssay AID1259407", "about": "(Chemical Carcinogenesis Research Information System (CCRIS), 2018)", "tested_on": "CCRIS mutagenicity, Ames/micronucleus/aberration tests", "experiment": "CCRIS mutagenicity studies", "key": {"[1]": {"details": "Test System: AMES SALMONELLA TYPHIMURIUM, Strain/Indicator: TA100, Metabolic Activation: NONE, Method: PREINCUBATION"}, "[2]": {"details": "Test System: AMES SALMONELLA TYPHIMURIUM, Strain/Indicator: TA98, Metabolic Activation: NONE, Method: STANDARD PLATE"}, "[3]": {"details": "Test System: AMES SALMONELLA TYPHIMURIUM, Strain/Indicator: TA100, Metabolic Activation: NONE, Method: STANDARD PLATE"}, "[4]": {"details": "Test System: AMES SALMONELLA TYPHIMURIUM, Strain/Indicator: TA1537, Metabolic Activation: NONE, Method: STANDARD PLATE"}, "[5]": {"details": "Test System: AMES SALMONELLA TYPHIMURIUM, Strain/Indicator: TA1538, Metabolic Activation: NONE, Method: STANDARD PLATE"}}, "note": "The source made the active and inactive calls. No rule for the calls is given here.", "data": [{"smiles": "CCCCCCCCCCCCOCCO", "values": [{"measurement": "mutagenic call", "setting": "End Point: IN VITRO CHROMOSOMAL ABERRATIONS, Test System: CHO-LB CELLS, Metabolic Activation: NONE", "value": "inactive; negative"}, {"measurement": "mutagenic call", "setting": "End Point: IN VITRO CHROMOSOMAL ABERRATIONS, Test System: CHO-LB CELLS, Metabolic Activation: RAT, LIVER, S-9, AROCLOR 1254", "value": "inactive; negative"}, {"measurement": "mutagenic call", "setting": "Test System: AMES SALMONELLA TYPHIMURIUM, Strain/Indicator: TA98, Metabolic Activation: HAMSTER, LIVER, S-9, AROCLOR 1254 (10%), Method: PREINCUBATION", "value": "inactive; negative"}, {"measurement": "mutagenic call", "setting": "Test System: AMES SALMONELLA TYPHIMURIUM, Strain/Indicator: TA98, Metabolic Activation: NONE, Method: PREINCUBATION", "value": "inactive; negative"}, {"measurement": "mutagenic call", "setting": "Test System: AMES SALMONELLA TYPHIMURIUM, Strain/Indicator: TA98, Metabolic Activation: RAT, LIVER, S-9, AROCLOR 1254 (10%), Method: PREINCUBATION", "value": "inactive; negative"}, {"measurement": "mutagenic call", "setting": "Test System: AMES SALMONELLA TYPHIMURIUM, Strain/Indicator: TA100, Metabolic Activation: HAMSTER, LIVER, S-9, AROCLOR 1254 (10%), Method: PREINCUBATION", "value": "inactive; negative"}, {"measurement": "mutagenic call", "setting": "[1]", "value": "inactive; negative"}, {"measurement": "mutagenic call", "setting": "Test System: AMES SALMONELLA TYPHIMURIUM, Strain/Indicator: TA100, Metabolic Activation: RAT, LIVER, S-9, AROCLOR 1254 (10%), Method: PREINCUBATION", "value": "inactive; negative"}, {"measurement": "mutagenic call", "setting": "Test System: AMES SALMONELLA TYPHIMURIUM, Strain/Indicator: TA1535, Metabolic Activation: HAMSTER, LIVER, S-9, AROCLOR 1254 (10%), Method: PREINCUBATION", "value": "inactive; negative"}, {"measurement": "mutagenic call", "setting": "Test System: AMES SALMONELLA TYPHIMURIUM, Strain/Indicator: TA1535, Metabolic Activation: NONE, Method: PREINCUBATION", "value": "inactive; negative"}, {"measurement": "mutagenic call", "setting": "Test System: AMES SALMONELLA TYPHIMURIUM, Strain/Indicator: TA1535, Metabolic Activation: RAT, LIVER, S-9, AROCLOR 1254 (10%), Method: PREINCUBATION", "value": "inactive; negative"}, {"measurement": "mutagenic call", "setting": "Test System: AMES SALMONELLA TYPHIMURIUM, Strain/Indicator: TA1537, Metabolic Activation: HAMSTER, LIVER, S-9, AROCLOR 1254 (10%), Method: PREINCUBATION", "value": "inactive; negative"}, {"measurement": "mutagenic call", "setting": "Test System: AMES SALMONELLA TYPHIMURIUM, Strain/Indicator: TA1537, Metabolic Activation: NONE, Method: PREINCUBATION", "value": "inactive; negative"}, {"measurement": "mutagenic call", "setting": "Test System: AMES SALMONELLA TYPHIMURIUM, Strain/Indicator: TA1537, Metabolic Activation: RAT, LIVER, S-9, AROCLOR 1254 (10%), Method: PREINCUBATION", "value": "inactive; negative"}, {"measurement": "mutagenic call", "setting": "Test System: E. COLI, Strain/Indicator: WP2 UVRA, Metabolic Activation: NONE, Method: STANDARD PLATE", "value": "inactive; negative"}, {"measurement": "mutagenic call", "setting": "Test System: E. COLI, Strain/Indicator: WP2 UVRA, Metabolic Activation: S-9, Method: STANDARD PLATE", "value": "inactive; negative"}]}, {"smiles": "OC[C@@H](O)[C@@H](O)[C@H](O)[C@H](O)CO", "values": [{"measurement": "mutagenic call", "setting": "End Point: IN VITRO CHROMOSOMAL ABERRATIONS, Test System: CHO CELLS, Metabolic Activation: NONE", "value": "inactive; negative"}, {"measurement": "mutagenic call", "setting": "End Point: IN VITRO CHROMOSOMAL ABERRATIONS, Test System: CHO CELLS, Metabolic Activation: RAT, LIVER, S-9, AROCLOR 1254", "value": "inactive; negative"}, {"measurement": "mutagenic call", "setting": "Test System: AMES SALMONELLA TYPHIMURIUM, Strain/Indicator: TA97, Metabolic Activation: NONE, Method: PREINCUBATION", "value": "inactive; negative"}, {"measurement": "mutagenic call", "setting": "Test System: AMES SALMONELLA TYPHIMURIUM, Strain/Indicator: TA97, Metabolic Activation: S-9, Method: PREINCUBATION", "value": "inactive; negative"}, {"measurement": "mutagenic call", "setting": "[2]", "value": "inactive; negative"}, {"measurement": "mutagenic call", "setting": "Test System: AMES SALMONELLA TYPHIMURIUM, Strain/Indicator: TA98, Metabolic Activation: RAT, LIVER, S-9, AROCLOR 1254, Method: STANDARD PLATE", "value": "inactive; negative"}, {"measurement": "mutagenic call", "setting": "[3]", "value": "inactive; negative"}, {"measurement": "mutagenic call", "setting": "Test System: AMES SALMONELLA TYPHIMURIUM, Strain/Indicator: TA100, Metabolic Activation: RAT, LIVER, S-9, AROCLOR 1254, Method: STANDARD PLATE", "value": "inactive; negative"}, {"measurement": "mutagenic call", "setting": "Test System: AMES SALMONELLA TYPHIMURIUM, Strain/Indicator: TA102, Metabolic Activation: NONE, Method: PREINCUBATION", "value": "inactive; negative"}, {"measurement": "mutagenic call", "setting": "Test System: AMES SALMONELLA TYPHIMURIUM, Strain/Indicator: TA102, Metabolic Activation: S-9, Method: PREINCUBATION", "value": "inactive; negative"}, {"measurement": "mutagenic call", "setting": "Test System: AMES SALMONELLA TYPHIMURIUM, Strain/Indicator: TA1535, Metabolic Activation: NONE, Method: STANDARD PLATE", "value": "inactive; negative"}, {"measurement": "mutagenic call", "setting": "Test System: AMES SALMONELLA TYPHIMURIUM, Strain/Indicator: TA1535, Metabolic Activation: RAT, LIVER, S-9, AROCLOR 1254, Method: STANDARD PLATE", "value": "inactive; negative"}, {"measurement": "mutagenic call", "setting": "[4]", "value": "inactive; negative"}, {"measurement": "mutagenic call", "setting": "Test System: AMES SALMONELLA TYPHIMURIUM, Strain/Indicator: TA1537, Metabolic Activation: RAT, LIVER, S-9, AROCLOR 1254, Method: STANDARD PLATE", "value": "inactive; negative"}, {"measurement": "mutagenic call", "setting": "[5]", "value": "inactive; negative"}, {"measurement": "mutagenic call", "setting": "Test System: AMES SALMONELLA TYPHIMURIUM, Strain/Indicator: TA1538, Metabolic Activation: RAT, LIVER, S-9, AROCLOR 1254, Method: STANDARD PLATE", "value": "inactive; negative"}, {"measurement": "mutagenic call", "setting": "Test System: E. COLI, Strain/Indicator: WP2, Metabolic Activation: NONE, Method: STANDARD PLATE", "value": "inactive; negative"}, {"measurement": "mutagenic call", "setting": "Test System: E. COLI, Strain/Indicator: WP2, Metabolic Activation: RAT, LIVER, S-9, AROCLOR 1254, Method: STANDARD PLATE", "value": "inactive; negative"}]}, {"smiles": "CC(=O)O[C@H]1[C@@H]2CC(C)(C)CC2=C(C=O)[C@]2(C=O)C[C@]12C", "values": [{"measurement": "mutagenic call", "setting": "[2]", "value": "inactive; negative"}, {"measurement": "mutagenic call", "setting": "[3]", "value": "inactive; negative"}, {"measurement": "mutagenic call", "setting": "Test System: AMES SALMONELLA TYPHIMURIUM, Strain/Indicator: TA2637, Metabolic Activation: NONE, Method: STANDARD PLATE", "value": "inactive; negative"}]}, {"smiles": "c1ccc2c(c1)cc1c3c2ccc2cccc(c23)C2OC12", "note": "(centres undefined)", "values": [{"measurement": "mutagenic call", "setting": "Test System: AMES SALMONELLA TYPHIMURIUM, Strain/Indicator: TA98, Metabolic Activation: NONE, Method: HOST-MEDIATED", "value": "inactive; negative"}, {"measurement": "mutagenic call", "setting": "[2]", "value": "active; positive"}, {"measurement": "mutagenic call", "setting": "Test System: AMES SALMONELLA TYPHIMURIUM, Strain/Indicator: TA98, Metabolic Activation: RAT, LIVER, S-9, KC500 OR PHENOBARBITAL, Method: LIQUID SUSPENSION", "value": "active; positive"}, {"measurement": "mutagenic call", "setting": "Test System: AMES SALMONELLA TYPHIMURIUM, Strain/Indicator: TA100, Metabolic Activation: MICROSOMAL EPOXIDE HYDROLASE, Method: PREINCUBATION", "value": "active; positive"}, {"measurement": "mutagenic call", "setting": "Test System: AMES SALMONELLA TYPHIMURIUM, Strain/Indicator: TA100, Metabolic Activation: NONE, Method: HOST-MEDIATED", "value": "inactive; negative"}, {"measurement": "mutagenic call", "setting": "[1]", "value": "active; positive"}, {"measurement": "mutagenic call", "setting": "[3]", "value": "active; positive"}, {"measurement": "mutagenic call", "setting": "Test System: AMES SALMONELLA TYPHIMURIUM, Strain/Indicator: TA100, Metabolic Activation: RAT, LIVER, S-9, KC500 OR PHENOBARBITAL, Method: LIQUID SUSPENSION", "value": "active; positive"}, {"measurement": "mutagenic call", "setting": "[4]", "value": "active; positive"}, {"measurement": "mutagenic call", "setting": "Test System: AMES SALMONELLA TYPHIMURIUM, Strain/Indicator: TA1538, Metabolic Activation: NONE, Method: HOST-MEDIATED", "value": "inactive; negative"}, {"measurement": "mutagenic call", "setting": "[5]", "value": "active; positive"}, {"measurement": "mutagenic call", "setting": "Test System: CHINESE HAMSTER V-79, Strain/Indicator: V-79/6-THIOGUANINE, Metabolic Activation: NONE, Method: REPLATING", "value": "active; positive"}, {"measurement": "mutagenic call", "setting": "Test System: CHINESE HAMSTER V-79, Strain/Indicator: V-79/6-THIOGUANINE, Metabolic Activation: NONE, Method: STANDARD PLATE", "value": "active; positive"}, {"measurement": "mutagenic call", "setting": "Test System: CHINESE HAMSTER V-79, Strain/Indicator: V-79/8-AZAGUANINE, Metabolic Activation: NONE, Method: STANDARD PLATE", "value": "active; positive"}, {"measurement": "mutagenic call", "setting": "Test System: CHINESE HAMSTER V-79, Strain/Indicator: V-79/OUABAIN, Metabolic Activation: NONE, Method: STANDARD PLATE", "value": "active; positive"}, {"measurement": "mutagenic call", "setting": "Test System: E. COLI, Strain/Indicator: WP2UVRA, Metabolic Activation: NONE, Method: STANDARD PLATE", "value": "active; positive"}, {"measurement": "mutagenic call", "setting": "Test System: UDS HUMAN CELLS, Strain/Indicator: THY INCORP (NON-S-PHASE), Metabolic Activation: NONE, Method: LIQUID SCINTILLATION COUNTING", "value": "active; positive"}]}]}
